The results in this text go back to article PMC8197855, “Peptide/β-Peptoid Hybrids with Activity against Vancomycin-Resistant Enterococci: Influence of Hydrophobicity and Structural Features on Antibacterial and Hemolytic Properties” (International Journal of Molecular Sciences, 2021).

Molecules are shown by their SMILES. In brackets after ≈: the same amount, converted by molar mass.

One assay deals with E. faecalis ATCC 29212. Nature of the assay: Time-kill kinetics. Type of assay: cell-based, Enterococcus faecalis. To be noted: for Reduction in viable bacteria (time-kill): 4× MIC (compound 2: 8 µg/mL, 2–4× MIC), 5 h exposure, BHI broth. How it is done:
(§1) Time–kill kinetics were established for compounds 2, 5 and 10 in E. faecium ATCC 19434 and E. faecalis ATCC 29212. Prior to the experiments, the isolates were incubated on BHI agar supplemented with 5% calf blood at 37 °C overnight (ON). For each of the strains 1-2 colonies were transferred into 4 mL BHI broth and incubated ON at 37 °C with shaking (180 rpm). OD600 was measured, and then cultures were diluted with BHI broth to an OD600 of 0.05 and grown for approximately 2 h to reach the exponential phase.
(§2) One untreated control per strain was prepared. The inoculum was quantified by plating and subsequently enumerated. The initial inocula were approximately 10^7 CFU/mL. Two controls were included, both without bacteria and one including the respective compound without bacteria. All tubes were incubated at 37 °C with shaking (180 rpm). Samples of 100 µL were taken after 1 h, 3 h and 5 h of exposure. Appropriate dilutions were spread onto BHI agar plates and incubated at 37 °C overnight, and then colonies were enumerated. Plates were incubated for 24 h and 48 h, and then checked for the appearance of slow-growing colonies. The experiments were performed with at least three biological replicates for each condition and time point.

The next assay relates to E. faecium 2961. Kind of assay: microbe, parasite or virus in culture. It counts as cell-based, Enterococcus faecium. To be noted: 2961, 24 h.
In the next assay the test system is E. faecium 1798. Nature of the assay: microbe, parasite or virus in culture. Type of assay: cell-based, Enterococcus faecium. To be noted: 1798, 24 h.
Another assay deals with E. faecium D344R. Kind of assay: microbe, parasite or virus in culture. It counts as cell-based, Enterococcus faecium. To be noted: E. faecium D344R, human clinical isolate; 24 h.
A further assay relates to E. faecium 3978. Nature of the assay: microbe, parasite or virus in culture. Particulars: 3978, 24 h. It counts as cell-based, Enterococcus faecium.
Assay [1] has as its system HepG2 cell line ATCC HB-8065. Nature of the assay: Effect on HepG2 cell viability (MTT assay). To be noted: 48 h. Type of assay: cell-based, human. How it is done: The effect of peptidomimetics on mammalian cell viability was determined on the HepG2 cell line ATCC HB-8065. In brief, HepG2 cells were seeded into flat-bottom 96-well plates at a concentration of 5000 cells per well. The cells were incubated for 24 h in a humidified incubator (5% CO2, 37 °C). Subsequently, the medium was removed, and the cells were incubated for 48 h in a humidified incubator (5% CO2, 37 °C) with peptidomimetics in serial dilutions. An MTT assay was then performed; in brief, after incubation with the test compounds, the culture medium was removed and fresh medium with 0.2 mg/mL MTT was then added into each well. After incubation (3 h, 37 °C, 5% CO2), the medium with MTT was removed, and 200 μL dimethyl sulfoxide was added at once to each sample. The absorbance of MTT was measured using the spectrophotometer TECAN Infinite M1000 at 540 nm. The relative viability was calculated by using the formula:ODtreated cells × 100/ODcontrol cells
The IC50 values were calculated using the program Graph Pad Prism 5.0. For all compounds, the test range was 10–1280 μg/mL.

The test system of the next assay is E. faecalis 38262. Kind of assay: microbe, parasite or virus in culture. Particulars: 38262, 24 h. Type of assay: cell-based, Enterococcus faecalis.
The subject of another assay is E. faecalis 39002. Kind of assay: microbe, parasite or virus in culture. Type of assay: cell-based, Enterococcus faecalis. Particulars: 39002, 24 h.
The subject of another assay is E. faecium ATCC 19434. Nature of the assay: Time-kill kinetics. It counts as cell-based, Enterococcus faecium. Particulars: for Reduction in viable bacteria (time-kill): up to 5 h exposure, BHI broth. How it is done:
as §1, §2

The subject of a further assay is enterococci. Nature of the assay: Checkerboard assay, overall synergy statements. It counts as cell-based, Enterococcus faecium and Enterococcus faecalis. To be noted: for Resensitization of two vancomycin-resistant E. faecium isolates toward vancomycin / Sensitization of enterococcal isolates to gentamicin: sub-inhibitory concentrations; for Synergy with conventional antibiotics: vancomycin, gentamicin, ciprofloxacin, linezolid, rifampicin or azithromycin, synergy = FICI ≤ 0.5. How it is done: The strain culture preparation and final volume were the same as in the MIC assay. […] The plates were incubated for 24 h at 37 °C without shaking. […] All experiments were performed in two biological replicates.
To evaluate the effect of the combinations, the fractional inhibitory concentration index (FICI) was calculated for each combination according to:ΣFIC = FICA + FICB = (CA/MICA) + (CB/MICB)
The drug interaction was scored as follows: synergy—FICI ≤ 0.5; no interaction—FICI > 0.5–4; antagonism—FICI > 4 [40].

In a further assay the test system is E. faecalis (MV269). Kind of assay: Membrane integrity, propidium iodide uptake by flow cytometry. To be noted: peptidomimetics at MBC, nisin at MIC; 5 min. Type of assay: cell-based, Enterococcus faecalis. As for the experimental part:
Membrane integrity was assessed by using a propidium iodide (PI) uptake assay, as previously described. In brief, 2 μL of stationary enterococcal cultures were transferred to Falcon round-bottom tubes (14 mL; Corning), each containing 2 mL fresh BHI medium. Cultures were grown to an OD600 of 0.2 at 37 °C with shaking (180 rpm). […] Then, 15 μL of culture was transferred into 980 μL filtered phosphate-buffered saline, and then stained for 5 min with 5 μL of 0.1 mg/mL PI. After staining, the red fluorescence levels (FL3 channel) in cells were recorded by using a BD Biosciences Accuri C6 flow cytometer (Becton Dickinson). The settings of the flow cytometer were as follows: 25,000 recorded events at an FSC threshold of 15,000, and medium flow rate. The gating of the stained cell population and analysis of flow cytometry data were performed in CFlow (BD Accuri). The assessment of membrane integrity was performed in three biological replicates for each condition.

Turning to `CC(=O)N[C@@H](CCCCNC(=N)N)C(=O)N(CCC(=O)N[C@@H](CCCCN)C(=O)N(CCC(=O)N[C@@H](CCCCNC(=N)N)C(=O)N(CCC(=O)N[C@@H](CCCCN)C(=O)N(CCC(=O)N[C@@H](CCCCNC(=N)N)C(=O)N(CCC(=O)N[C@@H](CCCCN)C(=O)N(CCC(N)=O)[C@@H](C)c1ccccc1)[C@@H](C)C1CCCCC1)[C@@H](C)c1ccccc1)[C@@H](C)C1CCCCC1)[C@@H](C)c1ccccc1)[C@@H](C)C1CCCCC1` [Compound 5, Ac-[hArg-βNsce-Lys-βNspe]3-NH2], the “Reduction in viable bacteria (time-kill)” value in the assay on E. faecalis ATCC 29212 came out at 3 log; in the assay with E. faecium ATCC 19434 (4× MIC), 1.5 log. Also, the “Reduction in viable cell counts within 1 h” value is “no reduction in viable cell counts” in the assay with E. faecalis ATCC 29212 (4× MIC, within 1 h of exposure) and “no reduction in viable cell counts” with E. faecium ATCC 19434 (4× MIC, within 1 h of exposure). Moreover, the Minimum inhibitory concentration in the assay on E. faecium 2961 was 2 µg/mL (≈ 0.988 µM); in the assay on E. faecium 1798, 2 µg/mL (≈ 0.988 µM); in the assay on E. faecium D344R it was 2 µg/mL (≈ 0.988 µM); in the assay on E. faecium 3978 it was 2 µg/mL (≈ 0.988 µM); with E. faecalis 38262, 8 to 16 µg/mL; in the assay on E. faecalis 39002, 8 to 16 µg/mL. Also, in [1], the “HepG2 IC50” value was found to be 73 µg/mL. In addition, in the assay with enterococci, the “Resensitization of two vancomycin-resistant E. faecium isolates toward vancomycin” value (from here on “Resensitization”) is listed as “this was not the case”. Also, the “Sensitization of enterococcal isolates to gentamicin” value (“Sensitization … to gentamicin” below) with enterococci is “did not sensitize”. In the assay with enterococci, the “Synergy with conventional antibiotics” value is given as “no synergy”. Moreover, the “Propidium iodide (PI) uptake, membrane integrity” value (shortened to “Propidium iodide (PI) uptake”) in the assay on E. faecalis (MV269) was “less perturbation of membrane integrity”.

With `CC(=O)N[C@@H](CCCCNC(=N)N)C(=O)N(CCC(=O)N[C@@H](CCCCNC(=N)N)C(=O)N(CCC(=O)N[C@@H](CCCCNC(=N)N)C(=O)N(CCC(=O)N[C@@H](CCCCNC(=N)N)C(=O)N(CCC(=O)N[C@@H](CCCCNC(=N)N)C(=O)N(CCC(=O)N[C@@H](CCCCNC(=N)N)C(=O)N(CCC(N)=O)[C@@H](C)C1CCCCC1)[C@@H](C)C1CCCCC1)[C@@H](C)C1CCCCC1)[C@@H](C)C1CCCCC1)[C@@H](C)C1CCCCC1)[C@@H](C)C1CCCCC1` [Compound 2, Ac-[hArg-βNsce]6-NH2], the “Reduction in viable bacteria (time-kill)” value was “approximately 2 log” with E. faecalis ATCC 29212 and “approximately 3 log” in the assay on E. faecium ATCC 19434 (4× MIC). For the same compound, the Minimum inhibitory concentration in the assay with E. faecium 2961 was determined as 2 µg/mL (≈ 0.922 µM); in the assay with E. faecium 1798, 2 µg/mL (≈ 0.922 µM); in the assay with E. faecium D344R, 2 µg/mL (≈ 0.922 µM); in the assay on E. faecium 3978, 2 µg/mL (≈ 0.922 µM); in the assay with E. faecalis 38262 it was 4 µg/mL (≈ 1.84 µM); with E. faecalis 39002, 2 µg/mL (≈ 0.922 µM). Also, in [1], the “HepG2 IC50” value turned out to be 15 µg/mL. In addition, the “Bactericidal or bacteriostatic mode of action” value in the assay on E. faecium ATCC 19434 (8 µg/mL (4× MIC)) is recorded as “bactericidal”. Also, the “Resensitization” value in the assay on enterococci was “this was not the case”. In addition, in the assay with enterococci, the “Sensitization … to gentamicin” value is on record as “did not sensitize”. The “Synergy with conventional antibiotics” value in the assay with enterococci is listed as “no synergy”. The “Propidium iodide (PI) uptake” value in the assay on E. faecalis (MV269) was “significant accumulation of PI”.

Take `CCCCCCCC(=O)N[C@@H](CCCCN)C(=O)N(CCC(=O)N[C@@H](CCCCN)C(=O)N(CCC(=O)N[C@@H](CCCCN)C(=O)N(CCC(=O)N[C@@H](CCCCN)C(=O)N(CCC(=O)N[C@@H](CCCCN)C(=O)N(CCC(=O)N[C@@H](CCCCN)C(=O)N(CCC(N)=O)[C@@H](C)c1ccccc1)[C@@H](C)c1ccccc1)[C@@H](C)c1ccccc1)[C@@H](C)c1ccccc1)[C@@H](C)c1ccccc1)[C@@H](C)c1ccccc1` [Compound 10, Oct-[Lys-βNspe]6-NH2]: the figures for the “Reduction in viable bacteria (time-kill)” value in the assay on E. faecalis ATCC 29212 and with E. faecium ATCC 19434 (4× MIC) were 5 log and 4 log, respectively. The Minimum inhibitory concentration is 4 µg/mL (≈ 2.04 µM) in the assay on E. faecium 2961; 2 to 4 µg/mL in the assay with E. faecium 1798; 4 µg/mL (≈ 2.04 µM) with E. faecium D344R; 2 to 4 µg/mL with E. faecium 3978; 16 µg/mL (≈ 8.15 µM) in the assay on E. faecalis 38262; 8 µg/mL (≈ 4.07 µM) in the assay with E. faecalis 39002. Also, the “HepG2 IC50” value in [1] amounted to 41 µg/mL. Further, the “Resensitization” value in the assay on enterococci is on record as “this was not the case”. Besides, in the assay on enterococci, the “Sensitization … to gentamicin” value is “did not sensitize”. The “Synergy with conventional antibiotics” value with enterococci was “no synergy”. In the assay with E. faecalis (MV269), the “Propidium iodide (PI) uptake” value was “less perturbation of membrane integrity”.
